# Results taken from patent publication US20250152610A1, “IMIDAZOLATE GOLD COMPOUNDS FOR THE TREATMENT OF LUNG CANCER” (University of Cincinnati, priority 2022, published 2025).
# Tests used:
# [1] = tested on: KRAS-WT lung cancer cells (H1395, H522, H661, H1993, H332, H820) versus KM lung cancer cells (H157, H1264, H2122, H460, A549); assay: MTT cell viability assay on panel of KRAS-WT and KM lung cancer cell lines; format: cell-based, human; details: 1 nM to 100 μM; FIGS. 3A-3F; unpaired t test
# Procedure: Experiments were carried out to determine whether DM20 and CS47 are reversible TrxR inhibitors capable of triggering ferroptosis in KRAS-WT lung cancer cells. DM20 and CS47 in concentrations ranging from 1 nM to 100 μM were tested on a panel of KM and KRAS-WT cell lines in MTT cell viability assays. The tested KM cell lines included H157, H1264, H2122, H460, and A549 cells. The tested KRAS-WT cell lines included H1395, H522, H661, H1993, H332, and H820. Auranofin was included as a positive drug control and the human lung […] fibroblast cell line IMR90 was included as a normal, non-transformed cell counterpart. MTT viability and IC50 values were determined, results for which are shown in FIGS. 3A-3F, wherein each line or symbol corresponds to a human […] cell line. Statistics indicate unpaired t test with *, p<0.05, and **, p<0.01.
# [2] = tested on: H522 KRAS-WT lung cancer cells; assay: MTT cell viability rescue with ferrostatin-1, L-cysteine or NAC; format: cell-based, human; details: 48 hours, DM20 10 μM, CS47 10 uM, auranofin 1 μM; for rescue of cell viability by ferrostatin-1 (Fer-1): FIG. 4A; for rescue of cell viability by cysteine: FIG. 4B; for rescue of cell viability by n-acetyl-cysteine (NAC): FIG. 4C
# Procedure: H522 KRAS-WT lung cancer cells were treated with DM20 (10 μM), CS47 (10 uM), or auranofin (1 μM) in combination with ferrostatin-1, L-cysteine, or n-acetyl-cysteine (all mM, 48 hours of treatment, in quadruplicate). Statistics indicate one-way ANOVA followed by Sidak's multiple comparisons analysis with ns, p>0.05; *, p<0.05: **, p<0.01; ***, p<0.001 and ****, p<0.0001.
# GPX4 = details: H522 KRAS-WT and A546 KM cells, 10 μM, 48 hours; FIG. 5A
# Procedure: H522 KRAS-WT lung cancer cells and A546 KM lung cancer cells were treated with vehicle (negative control), DM20 (10 μM), CS47 (10 μM), and auranofin (1 μM, positive control) for 48 hours. Protein lysates were extracted from the cells and Western blot analysis was carried out to detect expression of TXNRD1 and GPX4 in the cell lines after treatment, with GAPDH expression detected as a control.
# [3] = tested on: H193 and H1395 KRAS-WT lung cancer cells; details: for lipid peroxidation (oxidized C11-BODIPY) in KRAS-WT cells: 10 μM, 48 hours, FIG. 5B; for ferroptosis induction in KRAS-WT lung cancer cells (overall conclusion): taken together from Examples 1-4
# Procedure: H157 and A549 KM lung cancer cells and H193 and H1395 KRAS-WT lung cancer cells were treated with vehicle (negative control), DM20 (10 μM), CS47 (10 μM), or auranofin (1 μM positive control) for 48 hours. Cells were then stained with DAP, oxidized C11-BODIPY, and reduced C11-BODIPY. C11-BODIPY is a ferroptosis lipid sensor that switches from red to green fluorescence upon oxidation.
SMILES,"sensitivity of KRAS-WT lung cancer cells compared with KM lung cancer cells (MTT viability, IC50) [1]",rescue of cell viability by ferrostatin-1 (Fer-1) [2],rescue of cell viability by cysteine [2],rescue of cell viability by n-acetyl-cysteine (NAC) [2],GPX4 expression after treatment (Western blot) (GPX4),lipid peroxidation (oxidized C11-BODIPY) in KRAS-WT cells [3],ferroptosis induction in KRAS-WT lung cancer cells (overall conclusion) [3]
"Clc1nc[n]([Au][PH](c2ccccc2)(c2ccccc2)c2ccccc2)c1Cl [CS47, 4,5-dichloro-imidazolate-1yl-gold(I)-triphenylphosphane]",significantly and selectively more sensitive,can rescue the cell viability,can rescue the cell viability,can rescue the cell viability,depletes GPX4 expression,induces lipid peroxidation,induce ferroptosis
"CC(=O)OC[C@H]1O[C@@H]([S-])[C@H](OC(C)=O)[C@@H](OC(C)=O)[C@@H]1OC(C)=O.CCP(CC)CC.[Au+] [auranofin, reference compound]",significantly and selectively more sensitive,can rescue the cell viability,can rescue the cell viability,can rescue the cell viability,–,–,–
"N#Cc1nc[n]([Au][PH](c2ccccc2)(c2ccccc2)c2ccccc2)c1C#N [DM20, 4,5-dicyano-imidazolate-1yl-gold(I)-triphenylphosphane]",significantly and selectively more sensitive,can rescue the cell viability,can rescue the cell viability,can rescue the cell viability,depletes GPX4 expression,induces lipid peroxidation,induce ferroptosis
